Results on 13 compounds are retold here after patent US7611696B2, “Sunscreen compositions as well as dihydropyridines and dihydropyranes” (DSM IP Assets B.V., priority 2002, dated 2009).

SMILES strings stand for the structures. Some results are limits rather than exact numbers.

A short description of data set [1]: UV absorption (λmax and ε) of the prepared UV-A screening compounds. It is filed as physicochemical. As to conditions: UV absorption maximum; solvent not stated.

In the case of `CC1=CC(=C(C#N)C#N)C=C(C)N1CCC(C)CC(C)(C)C` (stereo not shown) [1-N-[3,5,5-trimethylhexyl]-4-dicyanomethylene-2,6-dimethyl-1,4-dihydropyridine], in data set [1], the “UV: λmax” value worked out at 372 nm.

As to `CCCCC(CC)COCCCN1C(C)=CC(=C(C#N)C#N)C=C1C` (stereo not shown) [1-N-[3-(2-ethylhexyloxy)propyl]-4-dicyanomethylene-2,6-dimethyl-1,4-dihydropyridine], the “UV: λmax” value in data set [1] was found to be 370 nm.

Consider `CCCCN1C(C)=CC(=C(C#N)C#N)C=C1C` [1-N-butyl-4-dicyanomethylene-2,6-dimethyl-1,4-dihydropyridine], for which the “UV: λmax” value in data set [1] came out at 370 nm.

Turning to `CCCCCCCCCCCCN1C(C)=CC(=C(C#N)C#N)C=C1C` [1-N-dodecyl-4-dicyanomethylene-2,6-dimethyl-1,4-dihydropyridine], the “UV: λmax” value in data set [1] turned out to be 370 nm.

`CC1=CC(=C(C#N)C#N)C=C(C)N1C` [1-N-methyl-4-dicyanomethylene-2,6-dimethyl-1,4-dihydropyridine] yielded a melting point greater than 250 °C. Moreover, the “UV: λmax” value in data set [1] came to 368 nm.

Consider `CCOC(=O)C(C#N)=C1C=C(C)OC(C)=C1` [Example 1, ethyl (2,6-dimethyl-pyran-4-ylidene) cyanoacetate], for which the “UV: λmax” value in data set [1] is 348 nm.

For the compound `CCCCC(CC)COC(=O)C(C#N)=C1C=C(C)OC(C)=C1` (stereo not shown) [Example 2, 2-ethylhexyl (2,6-dimethyl-pyran-4-ylidene) cyanoacetate], the “UV: λmax” value in data set [1] is 352 nm.

Take `CCC1=C(C)C(=C(C#N)C#N)C(C)=C(CC)O1` [Example 3, 2-(2,6-diethyl-3,5-dimethylpyran-4-ylidene)malononitrile]: the melting point fell in the range of 64 to 65 °C. Besides, the “UV: λmax” value in data set [1] came out at 366 nm.

With `CCCC1=C(CC)C(=C(C#N)C#N)C(CC)=C(CCC)O1` [Example 4, 2-(3,5-diethyl-2,6-dipropylpyran-4-ylidene)malononitrile], the “UV: λmax” value in data set [1] stood at 364 nm.

In turn, `CCCCC(CC)CN1C(C)=CC(=C(C#N)C#N)C=C1C` (stereo not shown) [Example 5, 1-N-(2-ethylhexyl)-4-dicyanomethylene-2,6-dimethyl-1,4-dihydropyridine] had a melting point of 187 °C. For the same compound, the “UV: λmax” value in data set [1] was 372 nm.

Compound `CCCCC(CC)COC(=O)C(C#N)=C1C=C(C)N(CCCC)C(C)=C1` (stereo not shown) [Example 7, 2-ethylhexyl (1-N-butyl-2,6-dimethyl-1H-pyridin-4-ylidene)cyanoacetate] yielded a melting point of 69 to 70 °C. Also, the “UV: λmax” value in data set [1] was 374 nm.

In turn, `CCCCC(CC)COCCCN1C(C)=CC(=C(C#N)C(=O)OCC(CC)CCCC)C=C1C` (stereo not shown) [Example 8, 2-ethylhexyl (1-N-[3-(2-ethylhexyloxy)propyl]-2,6-di-methyl-1H-pyridin-4ylidene)cyanoacetate] registered a melting point of 69 to 70 °C. The “UV: λmax” value in data set [1] was determined as 366 nm.

`CC1=CC(=C(C#N)C#N)C=C(C)N1CCCOCCOCCOCCCN1C(C)=CC(=C(C#N)C#N)C=C1C` [Example 9, 2-{1-[3-(2-{2-[3-(4-dicyanomethylene-2,6-dimethyl-4H-pyridin-1-yl)-propoxy]-ethoxy}-ethoxy)-propyl]-2,6-dimethyl-1H-pyridin-4-ylidene}-malononitrile] had a melting point of 138 to 139 °C. Moreover, the “UV: λmax” value in data set [1] is 372 nm.

The melting point is the temperature, or range, at which the solid turns liquid.
